For 34 molecules, Ki results are on record in patent US8653263B2 (Janssen Pharmaceutica, priority 2009, dated 2014).

The first assay deals with human orexin-2 receptor (Homo sapiens (Human), UniProt O43614). The assay can be described thus: Human orexin 2 receptor radioligand binding ([3H]-EMPA competition). Conditions: HEK293 cells stably expressing human orexin-2 receptor; [3H]-EMPA 5 nM final; apparent Ki=IC50/(1+C/Kd), Kd=2 nM; read-out: OR 2 Ki.
Sequence of human orexin-2 receptor (O43614 whole entry): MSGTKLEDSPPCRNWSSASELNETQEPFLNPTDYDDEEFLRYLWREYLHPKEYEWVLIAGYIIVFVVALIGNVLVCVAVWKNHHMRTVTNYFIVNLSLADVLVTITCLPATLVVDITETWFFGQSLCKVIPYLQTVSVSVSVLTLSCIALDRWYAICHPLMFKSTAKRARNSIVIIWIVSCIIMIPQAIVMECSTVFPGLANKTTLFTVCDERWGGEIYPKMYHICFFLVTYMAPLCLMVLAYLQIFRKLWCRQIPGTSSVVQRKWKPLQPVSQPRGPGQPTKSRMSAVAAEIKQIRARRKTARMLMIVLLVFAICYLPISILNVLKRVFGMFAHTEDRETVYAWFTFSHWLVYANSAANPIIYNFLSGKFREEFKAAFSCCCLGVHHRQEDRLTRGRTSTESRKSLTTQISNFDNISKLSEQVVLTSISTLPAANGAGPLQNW
`Cc1nccc(N2CC3CN(C(=O)c4ccccc4-n4nccn4)CC3C2)n1` (stereo not shown) [Example 210, [5-(2-Methyl-pyrimidin-4-yl)-hexahydro-pyrrolo[3,4-c]pyrrol-2-yl]-(2-[1,2,3]triazol-2-yl-phenyl)-methanone]: the Ki is 3000 nM.
On the same count and under the same terms, to `Cc1cncc(N2CC3CN(C(=O)c4ccccc4-n4nccn4)CC3C2)n1` (stereo not shown) [Example 211, [5-(6-Methyl-pyrazin-2-yl)-hexahydro-pyrrolo[3,4-c]pyrrol-2-yl]-(2-[1,2,3]triazol-2-yl-phenyl)-methanone] belongs 44 nM; to `Cc1cnc(C)c(N2CC3CN(C(=O)c4cc(F)ccc4-c4ncccn4)CC3C2)n1` (stereo not shown) [Example 212, [5-(3,6-Dimethyl-pyrazin-2-yl)-hexahydro-pyrrolo[3,4-c]pyrrol-2-yl]-(5-fluoro-2-pyrimidin-2-yl-phenyl)-methanone], 33 nM; to `Cc1cnc(C)c(N2CC3CN(C(=O)c4ccccc4-c4ncn[nH]4)CC3C2)n1` (stereo not shown) [Example 213, [5-(3,6-Dimethyl-pyrazin-2-yl)-hexahydro-pyrrolo[3,4-c]pyrrol-2-yl]-[2-(2H-[1,2,4]triazol-3-yl)-phenyl]-methanone], 56 nM.
The same measure, in the same setting: to `O=C(c1ccccc1-n1nccn1)N1CC2CN(c3cc(C(F)(F)F)nc(N4CCCC4)n3)CC2C1` (stereo not shown) [Example 214, [5-(2-Pyrrolidin-1-yl-6-trifluoromethyl-pyrimidin-4-yl)-hexahydro-pyrrolo[3,4-c]pyrrol-2-yl]-(2-[1,2,3]triazol-2-yl-phenyl)-methanone] belongs 1230 nM.
Regarding `Cc1cc(C)nc(N2CC3CN(C(=O)c4cccc(C)c4C)CC3C2)n1` (stereo not shown) [Example 219, 2-[(2,3-Dimethylphenyl)carbonyl]-5-(4,6-dimethylpyrimidin-2-yl)octahydropyrrolo[3,4-c]pyrrole], the Ki was determined as 404 nM.
Same read-out and setting: to `Cc1cc(C)nc(N2CC3CN(C(=O)c4cccc(F)c4C)CC3C2)n1` (stereo not shown) [Example 220, 2-(4,6-Dimethylpyrimidin-2-yl)-5-[(3-fluoro-2-methylphenyl)carbonyl]octahydropyrrolo[3,4-c]pyrrole] belongs 500 nM.
Regarding `Cc1cc(C)nc(N2CC3CN(C(=O)c4cc(F)ccc4C(F)(F)F)CC3C2)n1` (stereo not shown) [Example 221, 2-(4,6-Dimethylpyrimidin-2-yl)-5-{[5-fluoro-2-(trifluoromethyl)phenyl]carbonyl}octahydropyrrolo[3,4-c]pyrrole], the Ki worked out at 2210 nM.
In the case of `COc1cc(Cl)ccc1C(=O)N1CC2CN(c3nc(C)cc(C)n3)CC2C1` (stereo not shown) [Example 222, 2-[(4-Chloro-2-methoxyphenyl)carbonyl]-5-(4,6-dimethylpyrimidin-2-yl)octahydropyrrolo[3,4-c]pyrrole], the Ki was 3620 nM.
In the case of `Cc1cc(C)nc(N2CC3CN(C(=O)c4cc(Cl)ccc4C)CC3C2)n1` (stereo not shown) [Example 223, 2-[(5-Chloro-2-methylphenyl)carbonyl]-5-(4,6-dimethylpyrimidin-2-yl)octahydropyrrolo[3,4-c]pyrrole], the Ki stood at 340 nM.
As for `Cc1ccc(C)c(C(=O)N2CC3CN(c4nc(C)cc(C)n4)CC3C2)c1` (stereo not shown) [Example 224, 2-[(2,5-Dimethylphenyl)carbonyl]-5-(4,6-dimethylpyrimidin-2-yl)octahydropyrrolo[3,4-c]pyrrole], the Ki amounted to 635 nM.
With `Cc1cc(C)nc(N2CC3CN(C(=O)c4c(C)cccc4C)CC3C2)n1` (stereo not shown) [Example 225, 2-[(2,6-Dimethylphenyl)carbonyl]-5-(4,6-dimethylpyrimidin-2-yl)octahydropyrrolo[3,4-c]pyrrole], the Ki is 423 nM.
In the case of `Cc1cc(C)nc(N2CC3CN(C(=O)c4cc(F)ccc4C)CC3C2)n1` (stereo not shown) [Example 226, 2-(4,6-Dimethylpyrimidin-2-yl)-5-[(5-fluoro-2-methylphenyl)carbonyl]octahydropyrrolo[3,4-c]pyrrole], the Ki is 836 nM.
The same measure, in the same setting: under `Cc1ccc(C(=O)N2CC3CN(c4nc(C)cc(C)n4)CC3C2)c(C)c1` (stereo not shown) [Example 227, 2-[(2,4-Dimethylphenyl)carbonyl]-5-(4,6-dimethylpyrimidin-2-yl)octahydropyrrolo[3,4-c]pyrrole] stands 1470 nM.
On to `CCOc1ccc(OCC)c(C(=O)N2CC3CN(c4nc(C)cc(C)n4)CC3C2)c1` (stereo not shown) [Example 228, 2-[(2,5-Diethoxyphenyl)carbonyl]-5-(4,6-dimethylpyrimidin-2-yl)octahydropyrrolo[3,4-c]pyrrole], for which the Ki is 184 nM.
As for `CCOc1cccc(OCC)c1C(=O)N1CC2CN(c3nc(C)cc(C)n3)CC2C1` (stereo not shown) [Example 229, 2-[(2,6-Diethoxyphenyl)carbonyl]-5-(4,6-dimethylpyrimidin-2-yl)octahydropyrrolo[3,4-c]pyrrole], the Ki came to 319 nM.
On to `Cc1cc(C)nc(N2CC3CN(C(=O)c4c(C)cccc4Cl)CC3C2)n1` (stereo not shown) [Example 230, 2-[(2-Chloro-6-methylphenyl)carbonyl]-5-(4,6-dimethylpyrimidin-2-yl)octahydropyrrolo[3,4-c]pyrrole], for which the Ki stood at 254 nM.
In the case of `Cc1cc(C)nc(N2CC3CN(C(=O)c4ccc(F)cc4-c4ncccn4)CC3C2)n1` (stereo not shown) [Example 231, (5-(4,6-Dimethylpyrimidin-2-yl)hexahydropyrrolo[3,4-c]pyrrol-2(1H)-yl)(4-fluoro-2-(pyrimidin-2-yl)phenyl)methanone], the Ki was 68 nM.
On the same count and under the same terms, to `Cc1cc(C)nc(N2CC3CN(C(=O)c4cccc(F)c4I)CC3C2)n1` (stereo not shown) [Example 232, (5-(4,6-Dimethylpyrimidin-2-yl)hexahydropyrrolo[3,4-c]pyrrol-2(1H)-yl)(3-fluoro-2-iodophenyl)methanone] belongs 52 nM; to `Cc1cc(C)nc(N2CC3CN(C(=O)c4cccnc4C(F)(F)F)CC3C2)n1` (stereo not shown) [Example 233, 2-(4,6-Dimethylpyrimidin-2-yl)-5-{[2-(trifluoromethyl)pyridin-3-yl]carbonyl}octahydropyrrolo[3,4-c]pyrrole], 2100 nM.
On to `Cc1cc(C)nc(N2CC3CN(C(=O)c4cccnc4Br)CC3C2)n1` (stereo not shown) [Example 234], for which the Ki was 10000 nM.
Turning to `Cc1cc(C)nc(N2CC3CN(C(=O)c4cccnc4-c4ncccn4)CC3C2)n1` (stereo not shown) [Example 235, (5-(4,6-Dimethylpyrimidin-2-yl)hexahydropyrrolo[3,4-c]pyrrol-2(1H)-yl)(2-(pyrimidin-2-yl)pyridin-3-yl)methanone], the Ki is 560 nM.
Take `Cc1cc(C)nc(N2CC3CN(C(=O)c4cccnc4-c4ccnn4C4CCCCO4)CC3C2)n1` (stereo not shown) [Example 236, (5-(4,6-Dimethylpyrimidin-2-yl)hexahydropyrrolo[3,4-c]pyrrol-2(1H)-yl)(2-(1-(tetrahydro-2H-pyran-2-yl)-1H-pyrazol-5-yl)pyridin-3-yl)methanone]: the Ki was determined as 10000 nM.
As for `Cc1cc(C)nc(N2CC3CN(C(=O)c4cccnc4-c4ccn[nH]4)CC3C2)n1` (stereo not shown) [Example 237, (2-(1H-Pyrazol-5-yl)pyridin-3-yl)(5-(4,6-dimethylpyrimidin-2-yl)hexahydropyrrolo[3,4-c]pyrrol-2(1H)-yl)methanone], the Ki was found to be 69 nM.
Take `Cc1nc(N2CC3CN(C(=O)c4cccc(F)c4-c4ncccn4)CC3C2)nc(C)c1C` (stereo not shown) [Example 239, (3-Fluoro-2-(pyrimidin-2-yl)phenyl)(5-(4,5,6-trimethylpyrimidin-2-yl)hexahydropyrrolo[3,4-c]pyrrol-2(1H)-yl)methanone]: the Ki turned out to be 7 nM.
The same measure, in the same setting: to `Cc1nc(N2CC3CN(C(=O)c4cccc(F)c4-n4nccn4)CC3C2)nc(C)c1C` (stereo not shown) [Example 240, (3-Fluoro-2-(2H-1,2,3-triazol-2-yl)phenyl)(5-(4,5,6-trimethylpyrimidin-2-yl)hexahydropyrrolo[3,4-c]pyrrol-2(1H)-yl)methanone] belongs 7 nM; to `COc1ccc(-n2nccn2)c(C(=O)N2CC3CN(c4nc(C)c(C)c(C)n4)CC3C2)c1` (stereo not shown) [Example 241, (5-Methoxy-2-(2H-1,2,3-triazol-2-yl)phenyl)(5-(4,5,6-trimethylpyrimidin-2-yl)hexahydropyrrolo[3,4-c]pyrrol-2(1H)-yl)methanone], 17 nM; to `O=C(c1cccc(F)c1-n1nccn1)N1CC2CN(c3ncc4cc(F)ccc4n3)CC2C1` (stereo not shown) [Example 242, (3-Fluoro-2-(2H-1,2,3-triazol-2-yl)phenyl)(5-(6-fluoroquinazolin-2-yl)hexahydropyrrolo[3,4-c]pyrrol-2(1H)-yl)methanone], 39 nM.
`O=C(c1cccc(F)c1-c1ncccn1)N1CC2CN(c3ncc4cc(F)ccc4n3)CC2C1` (stereo not shown) [Example 243, (3-Fluoro-2-(pyrimidin-2-yl)phenyl)(5-(6-fluoroquinazolin-2-yl)hexahydropyrrolo[3,4-c]pyrrol-2(1H)-yl)methanone]: the Ki was found to be 16 nM.
Take `COc1ccc(-n2nccn2)c(C(=O)N2CC3CN(c4cnc5cc(F)c(F)cc5n4)CC3C2)c1` (stereo not shown) [Example 245, (5-(6,7-Difluoroquinoxalin-2-yl)hexahydropyrrolo[3,4-c]pyrrol-2(1H)-yl)(5-methoxy-2-(2H-1,2,3-triazol-2-yl)phenyl)methanone]: the Ki worked out at 58 nM.
In the case of `O=C(c1c(F)cccc1-n1nccn1)N1CC2CN(c3cnc4cc(F)c(F)cc4n3)CC2C1` (stereo not shown) [Example 246, (5-(6,7-Difluoroquinoxalin-2-yl)hexahydropyrrolo[3,4-c]pyrrol-2(1H)-yl)(2-fluoro-6-(2H-1,2,3-triazol-2-yl)phenyl)methanone], the Ki was 11 nM.
As for `O=C(c1cccc(F)c1Br)N1CC2CN(c3ncc4cc(F)ccc4n3)CC2C1` (stereo not shown) [Example 247, (2-Bromo-3-fluorophenyl)(5-(6-fluoroquinazolin-2-yl)hexahydropyrrolo[3,4-c]pyrrol-2(1H)-yl)methanone], the Ki is 650 nM.
On to `Cc1ccc(-c2cc(F)ccc2C(=O)N2CC3CN(c4nc(C)cc(C)n4)CC3C2)nc1` (stereo not shown) [Example 248, (5-(4,6-dimethylpyrimidin-2-yl)hexahydropyrrolo[3,4-c]pyrrol-2(1H)-yl)(4-fluoro-2-(5-methylpyridin-2-yl)phenyl)methanone], for which the Ki is 170 nM.

The assay is the same for the next values; noted with them: read-out: OR 2 Ki.
Take `Cc1nc(N2CC3CN(C(=O)c4c(F)cccc4-n4nccn4)CC3C2)cc(=O)[nH]1` (stereo not shown) [Example 252, 6-[5-{[2-Fluoro-6-(2H-1,2,3-triazol-2-yl)phenyl]carbonyl}hexahydropyrrolo[3,4-c]pyrrol-2(1H)-yl]-2-methylpyrimidin-4(3H)-one]: the Ki was not below 10000 nM.
